# Measured values as given in publication PMC4914440 (Pharmacological research, 2016).
# What was measured:
# M3 muscarinic receptor = M3 muscarinic receptor (Homo sapiens, UniProt P20309); assay: Intracellular calcium assay, untransfected HEK293 cells with endogenous receptor; type: cell-based
# untransfected CHO cells = assay: Intracellular calcium assay, control cells; type: cell-based; settings: data not shown
# 5-HT6 receptor [1] = molecular target: T1, 5-HT6 receptor (Rattus norvegicus, UniProt P31388); assay: cAMP-Glo assay of Gs signaling, HeLa cells; type: cell-based; settings: 30 μM
# T1 sequence (P31388 whole entry): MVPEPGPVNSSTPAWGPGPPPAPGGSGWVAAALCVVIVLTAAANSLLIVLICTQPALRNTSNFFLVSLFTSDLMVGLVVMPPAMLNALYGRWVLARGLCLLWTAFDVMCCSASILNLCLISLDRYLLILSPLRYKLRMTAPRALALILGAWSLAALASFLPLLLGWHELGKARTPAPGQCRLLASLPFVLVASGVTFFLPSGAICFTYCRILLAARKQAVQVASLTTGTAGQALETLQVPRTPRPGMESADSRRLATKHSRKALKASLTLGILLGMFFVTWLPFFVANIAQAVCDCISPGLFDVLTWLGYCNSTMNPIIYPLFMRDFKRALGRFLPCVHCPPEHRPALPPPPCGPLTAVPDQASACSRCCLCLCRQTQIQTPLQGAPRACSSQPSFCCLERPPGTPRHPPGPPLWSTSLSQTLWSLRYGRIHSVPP
# [2] = system: endogenous β-adrenergic receptor; assay: cAMP-Glo assay, untransfected HeLa cells stimulated with; type: cell-based, human
# 5-HT2A receptor = 5-HT2A receptor (Homo sapiens, UniProt P28223); assay: Prolonged; type: cell-based; settings: 3 day exposure to 30 μM
# Chain of 5-HT2A receptor (P28223 whole entry): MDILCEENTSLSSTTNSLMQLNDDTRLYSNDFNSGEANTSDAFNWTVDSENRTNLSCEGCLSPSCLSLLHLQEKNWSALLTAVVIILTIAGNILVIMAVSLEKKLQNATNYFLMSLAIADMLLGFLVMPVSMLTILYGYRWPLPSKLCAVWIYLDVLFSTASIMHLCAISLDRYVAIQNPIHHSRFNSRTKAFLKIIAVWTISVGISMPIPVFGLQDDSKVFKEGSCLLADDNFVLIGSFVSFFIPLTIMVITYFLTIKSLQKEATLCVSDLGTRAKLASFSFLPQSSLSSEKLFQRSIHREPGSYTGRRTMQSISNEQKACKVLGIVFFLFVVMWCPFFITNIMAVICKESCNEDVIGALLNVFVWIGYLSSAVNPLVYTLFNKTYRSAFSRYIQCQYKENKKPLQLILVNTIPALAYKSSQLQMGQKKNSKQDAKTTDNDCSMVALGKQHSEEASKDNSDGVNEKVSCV
# MAO-A = MAO-A (Homo sapiens, UniProt P21397); assay: Inhibition of monoamine oxidase A activity, kynuramine substrate; type: biochemical; settings: 10 μM
# Chain of MAO-A (P21397 whole entry): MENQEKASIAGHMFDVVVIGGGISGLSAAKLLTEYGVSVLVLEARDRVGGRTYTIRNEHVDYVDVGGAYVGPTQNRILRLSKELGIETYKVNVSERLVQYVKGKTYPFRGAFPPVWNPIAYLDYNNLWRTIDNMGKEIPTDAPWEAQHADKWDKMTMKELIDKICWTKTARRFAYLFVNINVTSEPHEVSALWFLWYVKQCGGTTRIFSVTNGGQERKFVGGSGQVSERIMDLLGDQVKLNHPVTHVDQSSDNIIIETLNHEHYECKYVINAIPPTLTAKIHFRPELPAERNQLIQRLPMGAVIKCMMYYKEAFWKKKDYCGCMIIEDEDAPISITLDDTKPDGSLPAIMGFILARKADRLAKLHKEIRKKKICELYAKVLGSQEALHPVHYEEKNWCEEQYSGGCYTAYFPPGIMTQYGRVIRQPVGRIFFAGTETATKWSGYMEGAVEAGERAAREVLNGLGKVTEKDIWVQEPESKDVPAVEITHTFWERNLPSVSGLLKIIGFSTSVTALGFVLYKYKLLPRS
# h5-HT2A = h5-HT2A (Homo sapiens, UniProt P28223); settings: 10 μM efavirenz; cited from earlier work
# Chain of h5-HT2A (P28223 whole entry): as the sequence (P28223 whole entry) above
# 5-HT2C receptor = molecular target: T2, 5-HT2C receptor (Homo sapiens, UniProt P28335); settings: serum free
# T2 sequence (P28335 33-458): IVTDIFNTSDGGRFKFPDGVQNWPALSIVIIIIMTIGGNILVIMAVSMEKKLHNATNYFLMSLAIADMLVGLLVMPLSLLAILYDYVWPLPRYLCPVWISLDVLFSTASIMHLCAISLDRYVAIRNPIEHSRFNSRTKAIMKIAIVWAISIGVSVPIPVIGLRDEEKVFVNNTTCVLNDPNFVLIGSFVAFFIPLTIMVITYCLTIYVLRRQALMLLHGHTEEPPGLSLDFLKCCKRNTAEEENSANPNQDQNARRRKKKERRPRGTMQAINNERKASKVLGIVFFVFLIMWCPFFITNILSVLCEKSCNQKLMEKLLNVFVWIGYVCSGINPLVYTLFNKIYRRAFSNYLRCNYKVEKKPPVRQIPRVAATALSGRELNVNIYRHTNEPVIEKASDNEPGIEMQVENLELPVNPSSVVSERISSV
# M1 muscarinic receptor = M1 muscarinic receptor (Homo sapiens, UniProt P11229)
# Chain of M1 muscarinic receptor (P11229 whole entry): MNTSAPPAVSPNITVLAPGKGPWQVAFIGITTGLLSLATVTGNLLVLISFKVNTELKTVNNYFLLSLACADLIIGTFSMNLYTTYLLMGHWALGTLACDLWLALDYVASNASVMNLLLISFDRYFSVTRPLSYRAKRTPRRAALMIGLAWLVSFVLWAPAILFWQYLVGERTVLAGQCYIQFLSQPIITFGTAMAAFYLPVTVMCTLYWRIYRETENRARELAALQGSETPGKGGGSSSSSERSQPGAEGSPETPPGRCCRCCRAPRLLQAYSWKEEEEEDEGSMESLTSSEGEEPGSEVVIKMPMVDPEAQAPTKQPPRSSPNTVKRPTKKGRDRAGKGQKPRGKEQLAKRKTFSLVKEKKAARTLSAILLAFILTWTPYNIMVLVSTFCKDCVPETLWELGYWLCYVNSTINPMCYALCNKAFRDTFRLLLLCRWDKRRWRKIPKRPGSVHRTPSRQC
# h5-HT2C = molecular target: T3, h5-HT2C (Homo sapiens, UniProt P28335); settings: 10 μM efavirenz; cited from earlier work
# T3 sequence (P28335 33-458): T2 sequence (P28335 33-458)
# [3] = within 1 hr of i.p. dose of 15 mg/kg; cited from earlier work
# GABAA receptor = settings: cited from earlier work
# DAT = settings: cited from earlier work
# [4] = cited from earlier work
# dopamine receptors = settings: 10 μM; cited from earlier work
# NMDA receptors = settings: 10 μM; cited from earlier work
# HIV-1 = settings: cited from earlier work
# [5] = Estimated brain concentration, authors' calculation
# 5-HT6 receptor [6] = molecular target: T1, 5-HT6 receptor; assay: Competition radioligand binding, concentration-response
# h5-HT2B = h5-HT2B (Homo sapiens, UniProt P41595); assay: Radioligand displacement by a fixed drug concentration, [3H]LSD; settings: 10 μM efavirenz
# Chain of h5-HT2B (P41595 whole entry): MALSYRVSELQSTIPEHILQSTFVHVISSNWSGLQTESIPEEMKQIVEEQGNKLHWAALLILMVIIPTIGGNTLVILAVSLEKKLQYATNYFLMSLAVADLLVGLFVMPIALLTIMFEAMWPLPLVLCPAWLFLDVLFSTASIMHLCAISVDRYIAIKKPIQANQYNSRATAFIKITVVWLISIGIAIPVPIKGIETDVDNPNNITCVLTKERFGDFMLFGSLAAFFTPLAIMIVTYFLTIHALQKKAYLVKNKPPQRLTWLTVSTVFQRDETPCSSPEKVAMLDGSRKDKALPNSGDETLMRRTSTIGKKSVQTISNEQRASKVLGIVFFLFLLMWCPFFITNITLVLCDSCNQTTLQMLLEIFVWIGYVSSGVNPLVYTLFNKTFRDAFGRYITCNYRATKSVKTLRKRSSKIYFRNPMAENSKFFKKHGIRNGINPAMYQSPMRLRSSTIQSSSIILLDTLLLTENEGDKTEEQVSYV
# r5-HT6 = r5-HT6 (Rattus norvegicus, UniProt P31388); assay: as above; settings: 10 μM efavirenz
# Chain of r5-HT6 (P31388 whole entry): as the sequence (P31388 whole entry) above
# h5-HT5A = h5-HT5A (Homo sapiens, UniProt P47898); assay: as above; settings: 10 μM efavirenz
# Chain of h5-HT5A (P47898 whole entry): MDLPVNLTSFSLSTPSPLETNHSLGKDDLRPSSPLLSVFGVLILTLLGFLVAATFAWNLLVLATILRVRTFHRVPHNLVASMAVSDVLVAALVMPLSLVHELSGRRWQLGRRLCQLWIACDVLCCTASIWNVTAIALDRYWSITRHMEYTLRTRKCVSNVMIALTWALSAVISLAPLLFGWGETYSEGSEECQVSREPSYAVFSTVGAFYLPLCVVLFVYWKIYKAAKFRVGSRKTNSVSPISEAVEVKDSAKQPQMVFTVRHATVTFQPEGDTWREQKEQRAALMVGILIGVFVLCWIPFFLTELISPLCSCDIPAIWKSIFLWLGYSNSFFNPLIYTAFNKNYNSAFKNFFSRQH
# 5-HT3A receptors = molecular target: T4, 5-HT3A receptors (Mus musculus, UniProt P23979); assay: Whole cell electrophysiology, 5-HT-induced currents, HEK293 cells; settings: for reversibility of inhibition: 2–3 min washout, data not shown
# T4 sequence (P23979 24-489): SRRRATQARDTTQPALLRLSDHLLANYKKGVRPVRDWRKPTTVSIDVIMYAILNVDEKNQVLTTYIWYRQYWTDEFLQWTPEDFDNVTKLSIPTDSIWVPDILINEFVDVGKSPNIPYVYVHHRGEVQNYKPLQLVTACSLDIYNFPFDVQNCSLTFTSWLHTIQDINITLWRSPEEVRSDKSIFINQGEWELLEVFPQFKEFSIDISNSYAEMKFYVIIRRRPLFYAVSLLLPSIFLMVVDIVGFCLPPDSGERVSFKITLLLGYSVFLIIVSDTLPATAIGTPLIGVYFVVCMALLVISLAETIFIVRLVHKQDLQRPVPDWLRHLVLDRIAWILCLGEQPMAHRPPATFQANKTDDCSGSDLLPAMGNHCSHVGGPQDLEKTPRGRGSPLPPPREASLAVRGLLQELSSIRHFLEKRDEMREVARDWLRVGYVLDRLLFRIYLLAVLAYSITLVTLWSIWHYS
# m5-HT3 (5-HT3A receptor) = m5-HT3 (5-HT3A receptor) (Mus musculus, UniProt P23979); assay: Radioligand displacement by a fixed drug concentration, [3H]BRL-43694; settings: 10 μM efavirenz
# gp5-HT4 = gp5-HT4 (Cavia porcellus, UniProt O70528); settings: 10 μM efavirenz
# Chain of gp5-HT4 (O70528 whole entry): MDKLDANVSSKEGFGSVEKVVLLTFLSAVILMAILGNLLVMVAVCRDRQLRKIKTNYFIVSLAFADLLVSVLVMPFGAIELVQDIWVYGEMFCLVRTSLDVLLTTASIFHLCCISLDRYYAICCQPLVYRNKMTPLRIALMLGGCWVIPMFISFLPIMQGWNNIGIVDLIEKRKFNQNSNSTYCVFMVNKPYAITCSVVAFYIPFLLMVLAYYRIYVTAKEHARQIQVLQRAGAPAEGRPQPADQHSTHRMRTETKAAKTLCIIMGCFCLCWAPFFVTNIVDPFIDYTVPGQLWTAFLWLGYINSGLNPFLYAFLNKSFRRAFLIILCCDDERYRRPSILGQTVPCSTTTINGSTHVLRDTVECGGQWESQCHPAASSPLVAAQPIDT
# Chain of M3 muscarinic receptor (P20309 whole entry): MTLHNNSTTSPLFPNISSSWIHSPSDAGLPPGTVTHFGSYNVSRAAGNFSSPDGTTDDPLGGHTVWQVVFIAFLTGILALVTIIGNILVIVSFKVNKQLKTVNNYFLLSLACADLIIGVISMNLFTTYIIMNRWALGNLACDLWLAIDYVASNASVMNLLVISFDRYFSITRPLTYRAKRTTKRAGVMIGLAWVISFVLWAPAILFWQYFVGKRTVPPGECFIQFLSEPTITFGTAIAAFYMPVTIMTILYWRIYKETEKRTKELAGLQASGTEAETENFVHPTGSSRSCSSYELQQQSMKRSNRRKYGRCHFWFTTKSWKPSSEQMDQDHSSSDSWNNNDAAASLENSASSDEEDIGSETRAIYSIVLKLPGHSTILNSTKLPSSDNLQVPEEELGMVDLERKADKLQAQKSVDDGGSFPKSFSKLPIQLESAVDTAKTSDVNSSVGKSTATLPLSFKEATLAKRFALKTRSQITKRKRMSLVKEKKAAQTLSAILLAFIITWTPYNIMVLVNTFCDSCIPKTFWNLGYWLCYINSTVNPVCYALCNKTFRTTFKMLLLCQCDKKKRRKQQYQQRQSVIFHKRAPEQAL
smiles,measurement,setting,value
"O=C1Nc2ccc(Cl)cc2[C@@](C#CC2CC2)(C(F)(F)F)O1 [efavirenz, (4S)-6-chloro-4-(2-cyclopropylethynyl)-4-(trifluoromethyl)-2,4-dihydro-1H-3,1-benzoxazin-2-one]",concentration partially suppressing ACh mediated activation,M3 muscarinic receptor; EC50 concentration of acetylcholine,≥ 10 µM
same,extent of block of ACh response,M3 muscarinic receptor; highest concentration that could be tested,unable to produce a complete block
same,effect alone on intracellular Ca2+ levels,M3 muscarinic receptor; untransfected HEK293 cells,had no effect
same,Gq-mediated response,untransfected CHO cells,No Gq-mediated response
same,effect on 5-HT agonist effect,5-HT6 receptor [1],completely overcame the agonist effect of 5-HT but also reduced activity to below basal levels
same,effect on basal cAMP,5-HT6 receptor [1],lowers the basal levels of cAMP
same,effect on (−)-epinephrine stimulated cAMP response,[2],failed to significantly modulate
same,decrease in receptor density (Bmax),5-HT2A receptor,52%
same,decrease of MAO-A activity,MAO-A,36 ± 1.7%
same,displacement of specifically bound radioligand,h5-HT2A,≥ 75%
same,concentration completely suppressing the 5-HT agonist effect,5-HT2C receptor; 0.03 nM 5-HT (EC50),≥ 60 µM
same,concentration inhibiting the 5-HT agonist effect,5-HT2C receptor; 0.03 nM 5-HT (EC50),≥ 10 µM
same,concentration with no significant effect on 5-HT responses,5-HT2C receptor; 0.03 nM 5-HT (EC50),up to 3 μM
same,agonist activity,5-HT2C receptor,did not have any agonist activity
same,stimulation of Gq-coupling alone,M1 muscarinic receptor,fails to stimulate
same,concentration suppressing the carbachol Gq response,M1 muscarinic receptor; EC50 concentration of carbachol,≥ 10 µM
same,displacement of specifically bound radioligand,h5-HT2C,≥ 75%
same,brain levels relative to plasma levels,[3],exceed 4.6 times
same,effect on GABA-mediated chloride currents,GABAA receptor,potentiated GABA-mediated chloride currents
same,transporter function,DAT,functioned as a DAT and SERT blocker
same,substitution in rats trained to discriminate LSD from saline,[4],partially substituted for LSD
same,interaction,dopamine receptors,did not have significant interactions
same,interaction,NMDA receptors,did not have significant interactions
same,plasma levels needed to keep HIV-1 suppressed,HIV-1,1 to 4 µg/mL
same,plasma levels resulting in NPAE,HIV-1,greater than 2.74 μg/mL
same,plasma levels resulting in virologic failure,HIV-1,< 1 μg/mL
same,estimated concentration in brain tissue,[5]; 44 nM ÷ 0.002,~22 µM
same,corresponding brain concentrations,"[5]; plasma >2.74 μg/mL, assuming rat brain accumulation 4.6",> 40 µM
same,Ki,5-HT6 receptor [6],2200 ± 270 nM
same,pseudo Hill slope,5-HT6 receptor [6]; competition binding,−1.36 ± −0.14
same,displacement of specifically bound radioligand,h5-HT2B,greater than 50%
same,displacement of specifically bound radioligand,r5-HT6,≥ 75%
same,interaction (radioligand displacement),h5-HT5A,less pronounced or no detectable interaction
same,IC50,5-HT3A receptors,4.9 ± 0.7 µM
same,Hill coefficient,5-HT3A receptors; 0.6 μM 5-HT (EC30),1.2 ± 0.19
same,effect alone,"5-HT3A receptors; 10 μM, n = 5, data not shown",had no effect
same,inhibition of steady-state currents,5-HT3A receptors; 30 μM,complete inhibition
same,reversibility of inhibition,5-HT3A receptors; 30 μM,partially recovered
same,reversibility of inhibition,5-HT3A receptors; up to 10 μM,completely reversible
same,displacement of [3H]-granisetron binding,m5-HT3 (5-HT3A receptor),did not significantly displace
same,interaction (radioligand displacement),gp5-HT4,less pronounced or no detectable interaction
